Converted amounts (≈) assume the structure as drawn. Where a name gives a salt, the structure may show the parent alone.

The test system of one assay is A549/SN-38-4 cells. The assay is described as follows: Effect of overcoming SN-38 resistance of BCRP-expressing A549/SN-38-4 cells. Type of assay: cell-based, human. As to conditions: Homo sapiens, A549, 48 h, concentration for 50% reduction of relative SN-38 resistance value (IC50 A549/SN-38-4 / IC50 A549); 48 hours culture with SN-38; read-out: Effect of overcoming resistance EC50. On the procedure:
The human lung cancer A549 cells or the A549/SN-38-4 cells were suspended in a Ham's F-12 medium containing 10% FBS, 100 U/mL of penicillin, and 100 μg/mL of streptomycin (10% FBS/Ham's F-12), and the resultant suspension was inoculated into a 96-well microplate (2×10^3 cells/50 μL/well), followed by culturing at 5% CO2 and 37° C. overnight. […] After completion of culturing, the number of viable cells was counted by use of a viable cell counting reagent [TetraColor ONE (trademark), product of Seikagaku Corporation] according to the attached instruction manual. […] The greater the relative resistance value, the higher the level of acquired resistance.
`COc1ccc(/C(C#N)=C/c2ccc(Br)s2)cc1OC` [Compound 2, (Z)-3-(5-bromo-thiophen-2-yl)-2-(3,4-dimethoxy-phenyl)-acrylonitrile]: the EC50 is 0.13 µg/mL (≈ 0.371 µM).
As for `COc1ccc(/C(C#N)=C/c2ccc(N(C)CCO)s2)cc1OC` [Compound 7, (Z)-2-(3,4-dimethoxy-phenyl)-3-{5-[(2-hydroxy-ethyl)-methyl-amino]-thiophen-2-yl}-acrylonitrile], the EC50 amounted to 0.039 µg/mL (≈ 0.113 µM).
With `COc1ccc(/C(C#N)=C/c2ccc(N3CCN(C)CC3)s2)cc1OC` [Compound 8, (Z)-2-(3,4-dimethoxy-phenyl)-3-[5-(4-methyl-piperazin-1-yl)-thiophen-2-yl]-acrylonitrile], the EC50 was found to be 0.045 µg/mL (≈ 0.122 µM).
Consider `COc1ccc(/C(C#N)=C/c2ccc(N3CCN(CCO)CC3)s2)cc1OC` [Compound 9, (Z)-2-(3,4-dimethoxy-phenyl)-3-{5-[4-(2-hydroxy-ethyl)-piperazin-1-yl]-thiophen-2-yl}-acrylonitrile], for which the EC50 is 0.046 µg/mL (≈ 0.115 µM).
Regarding `COc1ccc(/C(C#N)=C/c2ccc(N(C)CCN(C)C)s2)cc1OC` [Compound 10, (Z)-2-(3,4-dimethoxy-phenyl)-3-{5-[(2-dimethylamino-ethyl)-methyl-amino]-thiophen-2-yl}-acrylonitrile], the EC50 worked out at 0.12 µg/mL (≈ 0.323 µM).
Consider `COc1ccc(/C(C#N)=C/c2ccc(N3CCCCC3)o2)cc1OC` [Compound 24, (Z)-2-(3,4-dimethoxy-phenyl)-3-(5-piperidin-1-yl-furan-2-yl)-acrylonitrile], for which the concentration giving a half-maximal response (EC50) is 0.034 µg/mL (≈ 0.1 µM).
As to `COc1ccc(/C=C(\C#N)c2ccc(OC)c(OC)c2)cn1` [Compound 35, (Z)-2-(3,4-dimethoxy-phenyl)-3-(6-methoxy-pyridin-3-yl)-acrylonitrile], the EC50 amounted to 0.19 µg/mL (≈ 0.641 µM).
As to `COc1ccc(/C(C#N)=C/c2ccc(Br)o2)cc1OC` [Compound 54, (Z)-3-(5-bromo-furan-2-yl)-2-(3,4-dimethoxy-phenyl)-acrylonitrile], the EC50 came out at 0.036 µg/mL (≈ 0.108 µM).
With `COc1ccc(/C(C#N)=C/c2ccc(N3CCN(CCO)CC3)s2)cc1OC.CS(=O)(=O)O` [Compound 59, (Z)-2-(3,4-dimethoxy-phenyl)-3-{5-[4-(2-hydroxy-ethyl)-piperazin-1-yl]-thiophen-2-yl}-acrylonitrile methanesulfonate], the EC50 stood at 0.061 µg/mL.
On the same count and under the same terms, next, `CCN(CC)CCCNC(=O)CCC(=O)OC1CCN(c2ccc(/C=C(\C#N)c3ccc(OC)c(OC)c3)s2)CC1` [Compound 61, 1-[5-[(Z)-2-cyano-2-(3,4-dimethoxy-phenyl)-vinyl]-thiophen-2-yl]-piperidin-4-yl N-(3-diethylamino-propyl)-succinamate hydrochloride]: 0.044 µg/mL; `COc1ccc(/C(C#N)=C/c2ccc(N3CCC(OC(=O)CN(C)C)CC3)s2)cc1OC.Cc1ccc(S(=O)(=O)O)cc1` [Compound 62, 1-[5-[(Z)-2-cyano-2-(3,4-dimethoxy-phenyl)-vinyl]-thiophen-2-yl]-piperidin-4-yl dimethylamino-acetate p-toluenesulfonate]: 0.062 µg/mL; `COc1ccc(/C(C#N)=C/c2ccnc3ccccc23)cc1OC` [Compound 65, (Z)-2-(3,4-dimethoxy-phenyl)-3-quinolin-4-yl-acrylonitrile]: 0.011 µg/mL (≈ 0.0348 µM).
Consider `COc1ccc(/C(C#N)=C/c2csc3ccccc23)cc1OC` [Compound 66, (Z)-3-benzo[b]thiophen-3-yl-2-(3,4-dimethoxy-phenyl)-acrylonitrile], for which the 50% effective concentration (EC50) came out at 0.037 µg/mL (≈ 0.115 µM).
The same measure, in the same setting: the same measure for `COc1ccc(/C(C#N)=C/c2nc3ccccc3n2C)cc1OC` [Compound 67, (Z)-2-(3,4-dimethoxy-phenyl)-3-(1-methyl-1H-benzimidazol-2-yl)-acrylonitrile]: 0.1 µg/mL (≈ 0.313 µM); for `COc1ccc(/C(C#N)=C/c2cn(C)c3ccccc23)cc1OC` [Compound 68, (Z)-2-(3,4-dimethoxy-phenyl)-3-(1-methyl-1H-indol-3-yl)-acrylonitrile]: 0.011 µg/mL (≈ 0.0346 µM); for `COc1ccc(/C(C#N)=C/c2cc3ccccc3nc2Cl)cc1OC` [Compound 70, (Z)-3-(2-chloro-quinolin-3-yl)-2-(3,4-dimethoxy-phenyl)-acrylonitrile]: 0.011 µg/mL (≈ 0.0314 µM).

The assay is the same for the next values; noted with them: concentration for 50% reduction of relative SN-38 resistance value (IC50 A549/SN-38-4 / IC50 A549); 48 hours culture with SN-38.
With `COc1ccc(/C(C#N)=C/c2ccc(-c3cccc(N)c3)o2)cc1OC` [Compound 22, (Z)-3-[5-(3-amino-phenyl)-furan-2-yl]-2-(3,4-dimethoxy-phenyl)-acrylonitrile], the “Effect of overcoming resistance EC50” value was 0.013 µg/mL.
Still for that read-out and setting: next, `COc1ccc(/C(C#N)=C/c2ccc(N3CCC(OC(=O)CCC(=O)O)CC3)o2)cc1OC` [Compound 51, mono-(1-{5-[(Z)-2-cyano-2-(3,4-dimethoxy-phenyl)-vinyl]-furan-2-yl}-piperidin-4-yl)succinate]: 0.51 µg/mL; `COc1ccc(/C(C#N)=C/c2ccc(N3CCC(OC(=O)CCC(=O)N4CCC(N5CCCCC5)CC4)CC3)s2)cc1OC.Cl` [Compound 64, 1-[5-[(Z)-2-cyano-2-(3,4-dimethoxy-phenyl)-vinyl]-thiophen-2-yl]-piperidin-4-yl 4-[1,4′]bipiperidinyl-1′-yl-4-oxo-butylate hydrochloride]: 0.053 µg/mL.
As for `COc1ccc(/C(C#N)=C/c2cc3ccccc3o2)cc1OC` [Compound 69, (Z)-3-benzofuran-2-yl-(3,4-dimethoxy-phenyl)-acrylonitrile], the “Effect of overcoming resistance EC50” value stood at 0.043 µg/mL.

Still in this assay, the particulars now being: concentration for 50% reduction of relative SN-38 resistance value (IC50 A549/SN-38-4 / IC50 A549); 48 hours culture with SN-38; hydrochloride.
For the molecule `COc1ccc(/C(C#N)=C/c2ccc(N3CCCCC3)s2)cc1OC` [Compound 11, (Z)-2-(3,4-dimethoxy-phenyl)-3-(5-piperidin-1-yl-thiophen-2-yl)-acrylonitrile hydrochloride], the “Effect of overcoming resistance EC50” value was found to be 0.049 µg/mL.
On the same count and under the same terms, the same measure for `COc1ccc(/C(C#N)=C/c2ccc(N(C)CCN(C)C)s2)cc1OC` [Compound 15, (Z)-2-(3,4-dimethoxy-phenyl)-3-{5-[(2-dimethylamino-ethyl)-methyl-amino]-thiophen-2-yl}-acrylonitrile hydrochloride]: 0.2 µg/mL.
On the same count and under the same terms, next, `COc1ccc(/C(C#N)=C/c2ccc(N3CCN(C)CC3)o2)cc1OC` [Compound 29, (Z)-2-(3,4-dimethoxy-phenyl)-3-[5-(4-methyl-piperazin-1-yl)-furan-2-yl]-acrylonitrile hydrochloride]: 0.42 µg/mL; `COc1ccc(/C(C#N)=C/c2cccnc2)cc1OC` [Compound 36, (Z)-2-(3,4-dimethoxy-phenyl)-3-pyridin-3-yl-acrylonitrile hydrochloride]: 0.12 µg/mL; `COc1ccc(/C=C(\C#N)c2ccc(OC)c(OC)c2)cn1` [Compound 37, (Z)-2-(3,4-dimethoxy-phenyl)-3-(6-methoxy-pyridin-3-yl)-acrylonitrile hydrochloride]: 0.12 µg/mL.
For the molecule `COc1ccc(/C=C(\C#N)c2ccccn2)cc1OC` [Compound 47, (Z)-3-(3,4-dimethoxy-phenyl)-2-pyridin-2-yl-acrylonitrile hydrochloride], the “Effect of overcoming resistance EC50” value worked out at 0.03 µg/mL.
For `COc1ccc(/C(C#N)=C/c2ccc(N3CCN(CCO)CC3)o2)cc1OC` [Compound 50, (Z)-2-(3,4-dimethoxy-phenyl)-3-{5-[4-(2-hydroxy-ethyl)-piperazin-1-yl]-furan-2-yl}-acrylonitrile hydrochloride], the “Effect of overcoming resistance EC50” value worked out at 0.11 µg/mL.

The values above are taken from patent US8697742B2, “BCRP/ABCG2 inhibitor” (Kabushiki Kaisha Yakult Honsha, priority 2005, dated 2014).
